From patent publication US7858619B2, “Substituted tetrahydroisochinolines as MMP inhibitors, related production method and use as medicine” (sanofi-aventis, priority 2005, dated 2010)
pIC50: −log10 of the molar value. In brackets after ≈: the same amount, converted by molar mass. Where two headings read alike, the source gives them in different places.

Assays:
[1] = Thermodynamic solubility in PBS buffer pH 7.4, CLND (chemoluminescent nitrogen detector); format: physicochemical; conditions: aqueous buffer, thermodynamic from solid, PBS buffer pH 7.4, room temperature
Procedure: The solution is then centrifuged at 14 000 rpm for 5 minutes. The solution is removed from the pellet and filtered through a syringe filter (0.45 μm pore size). The presence of a pellet is checked in order to ensure that a saturated solution was present. The filtered clear solution is analyzed by HPLC.
The dissolved amount of substance is quantified using a generic chromatographic method:
Either a calibration line derived from DMSO stock solutions (1-500 μM) of the appropriate substance is used to quantify the corresponding signal in the UV (254 nm) chromatogram of the solubility sample, or the quantification is undertaken via the peak area in the CLND trace. In the case of CLND quantification, caffeine is used as standard in a calibrating dilution.
The limit of quantitation is determined together with the calibration series. The limit of quantitation is normally 1-5 μM with UV detection, 5-10 μM with CLND quantification (depending on the number of nitrogen atoms in the molecule or the extinction coefficient of the molecule). If the intensity of the signal from the dissolved molecule is below the limit of quantitation, the result is reported as less than the limit of quantitation.
The clear solution after incubation for 16 hours is always measured as duplicates, once diluted 40-fold and once directly without dilution. The sample for which the signal is in the linear range of the calibration is used to determine the solubility.

[2] = Protein binding (human); format: in vitro ADME; conditions: plasma
[3] = target: T1, Gelatinase B (MMP-9) (Homo sapiens, UniProt P14780); assay: Catalytic inhibition of gelatinase B (MMP-9) in human serum (serum-based assay); format: biochemical
T1 construct: All the MMP-9 present in the samples (proMMP-9; active MMP-9 complexed or not complexed with the respective test substance) was isolated; from tissue; host or cells: freshly isolated human serum
T1 sequence (P14780 107-707 limits assumed): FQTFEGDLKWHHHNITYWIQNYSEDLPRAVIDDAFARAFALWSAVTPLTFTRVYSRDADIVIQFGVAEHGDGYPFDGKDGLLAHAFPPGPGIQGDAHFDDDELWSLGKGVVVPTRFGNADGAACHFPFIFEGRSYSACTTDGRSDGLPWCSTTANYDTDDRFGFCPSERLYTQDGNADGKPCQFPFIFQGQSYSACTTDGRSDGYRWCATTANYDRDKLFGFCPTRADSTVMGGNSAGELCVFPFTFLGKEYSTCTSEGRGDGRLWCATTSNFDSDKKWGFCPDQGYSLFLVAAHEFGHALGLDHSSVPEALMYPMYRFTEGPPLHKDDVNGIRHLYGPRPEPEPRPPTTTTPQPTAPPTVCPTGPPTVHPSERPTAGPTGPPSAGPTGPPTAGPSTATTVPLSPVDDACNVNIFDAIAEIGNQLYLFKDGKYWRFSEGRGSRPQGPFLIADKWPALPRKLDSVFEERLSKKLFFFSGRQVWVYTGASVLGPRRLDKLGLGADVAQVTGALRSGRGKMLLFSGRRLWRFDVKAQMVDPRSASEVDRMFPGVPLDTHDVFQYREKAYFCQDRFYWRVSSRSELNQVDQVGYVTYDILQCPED
Procedure: Freshly isolated human serum was shock-frozen in the desired volume in liquid N2 and then stored at −80° C. For the catalytic inhibition of MMP-9 in human serum, the appropriate parts by volume of human serum were thawed at room temperature. 100 parts by volume of undiluted, freshly thawed human serum were mixed with 1 part by volume of test substance, thoroughly mixed and incubated at 37° C. for 1 h. The test substances were dissolved in 100% dimethyl sulfoxide, and a 10 mM stock solution was prepared. For dose-effect plots, the test substances were tested in final concentrations of from […] to 0.001 μM for their catalytic inhibition of MMP-9 in human serum. The final concentration of DMSO in the reaction solution was 1% in each case.
Active MMP-9 from the reaction solutions described above was determined with the aid of a MMP-9 activity assay system (Amersham Pharmacia Biotech Europe GmbH).
After the incubation, one part by volume of the reaction mixture described above was diluted with 20 parts by volume of MMP-9 reaction buffer. The samples diluted in this way were transferred to a 96-well assay plate (Amersham Pharmacia Biotech Europe GmbH, Germany) coated with a specific MMP-9 antibody and incubated at 4° C. overnight. In addition, various concentrations of dissolved, recombinant human pro MMP-9 were likewise transferred onto the 96-well assay plate to construct the standard curve.
100 μl of the respective samples were employed per well. All the MMP-9 present in the samples (proMMP-9; active MMP-9 complexed or not complexed with the respective test substance) was isolated from the sample mixture by the specific MMP-9 antibody and bound to a solid matrix.
The immobilized MMP-9 samples were, after the incubation, washed 4× with 200 μl of washing buffer each time. Subsequently, proMMP-9 present was activated with 50 μl of APMA solution at 37° C. for 1.5 h.
The enzymic activity was measured by adding, after the incubation, 50 μl of detection reagent to each sample and mixing. The absorption of the assay plate charged in this way was measured immediately at 405 nm in an ELISA measuring instrument in order to fix time t=0. The assay plate was then incubated at 37° C. for 2 to 3 h and thereafter the absorption at 405 nm was measured.
Using the standard curve employed, the resulting measurements were converted as follows to the remaining, uninhibited active form of MMP-9 in ng/ml. • X=(Y−b)/m*20 • X=active MMP-9 in [ng/mL] • Y=measured absorption • b=intercept on y axis • m=gradient • 20=dilution factor
The inhibitory effect was calculated as percentage inhibition by the following formula: % inhibition=100−(X2*100/X1) • X1=active MMP-9 in [ng/ml] without test substance • X2=active MMP-9 in [ng/ml] with test substance
The IC50, the concentration of inhibitor which is necessary for 50% inhibition of the enzymic activity, was determined graphically by plotting the percentage inhibitions at various inhibitor concentrations.
The composition of the buffer solutions respectively employed was as follows:
Reaction buffer: • 50 mM Tris-HCl pH 7.6 • 1.5 mM NaCl • 0.5 mM CaCl2 • 1 μM ZnCl2 • 0.01% (v/v) BRIJ 35
Recombinant MMP-9 employed for standard: • 0; 0.5; 1.0; 2.0; 4.0; 8.0; 16.0 ng/ml
Washing buffer: • 0.01 M sodium phosphate buffer pH 7.0 • 0.05% Tween20
APMA solution: • 1 mM p-aminophenyl mercuric acetate • 50 mM Tris-HCl pH 7.6 • 1.5 mM NaCl • 0.5 mM CaCl2 • 1 μM ZnCl2 • 0.01% (v/v) BRIJ 35
Detection reagent: • Modified urokinase • S-2444 peptide substrate • 50 mM Tris-HCl pH 7.6 • 1.5 mM NaCl • 0.5 mM CaCl2 • 1 μM ZnCl2 • 0.01% (v/v) BRIJ 35

[4] = hydroxamic acid derivatives, read-out: MMP-9*
[5] = carboxylic acid derivatives, read-out: MMP-9 activity

Compound: O=C(NO)C1c2ccccc2CCN1S(=O)(=O)c1ccc(Oc2ccc(F)cc2)cc1 (stereo not shown) [Comparative compound]
- solubility at 16 h [1]: < 1 µM
- fraction unbound [2]: 0.002
- pIC50 [3, 4]: 5.60

Compound: O=C(O)C1c2ccccc2CCN1S(=O)(=O)c1ccc(Oc2ccc(F)cc2)cc1 (stereo not shown) [Comparative compound]
- pIC50 [3, 5]: < 4.00

Compound: O=C(O)C1c2ccc(OCCN3CCCCC3)cc2CCN1S(=O)(=O)c1ccc(Oc2ccc(F)cc2)cc1 (stereo not shown) [Exemplary compound 2, 2-[4-(4-Fluorophenoxy)benzenesulfonyl]-6-(2-piperidin-1-ylethoxy)-1,2,3,4-tetrahydroisoquinoline-1-carboxylic acid]
- pIC50 [3, 5]: 5.06

Compound: CN1CCN(CCCOc2ccc3c(c2)CCN(S(=O)(=O)c2ccc(Oc4ccc(F)cc4)cc2)C3C(=O)NO)CC1 (stereo not shown) [Exemplary compound 3, 2-[4-(4-Fluorophenoxy)benzenesulfonyl]-6-[3-(4-methylpiperazin-1-yl)propoxy]-1,2,3,4-tetrahydroisoquinoline-1-carboxylic acid hydroxamide]
- solubility at 16 h [1]: 23 µM (≈ 13.8 µg/mL)
- fraction unbound [2]: 0.01
- pIC50 [3, 4]: 6.70

Compound: CCN(CC)CCOc1ccc2c(c1)CCN(S(=O)(=O)c1ccc(Oc3ccc(F)cc3)cc1)C2C(=O)NO (stereo not shown) [Exemplary compound 9, 6-(2-Diethylaminoethoxy)-2-[4-(4-fluorophenoxy)benzenesulfonyl]-1,2,3,4-tetrahydroisoquinoline-1-carboxylic acid hydroxyamide]
- solubility at 16 h [1]: 153 µM (≈ 85.3 µg/mL)
- fraction unbound [2]: 0.061
- pIC50 [3, 4]: 7.70

Compound: COc1ccc(Oc2ccc(S(=O)(=O)N3CCc4cc(OCCN5CCCCC5)ccc4C3C(=O)NO)cc2)cc1 (stereo not shown) [Exemplary compound 13, 2-[4-(4-Methoxyphenoxy)benzenesulfonyl]-6-(2-piperidin-1-ylethoxy)-1,2,3,4-tetrahydroisoquinoline-1-carboxylic acid hydroxyamide]
- solubility at 16 h [1]: 16 µM (≈ 9.31 µg/mL)
- fraction unbound [2]: 0.011
- pIC50 [3, 4]: 6.22

Compound: COc1ccc(Oc2ccc(S(=O)(=O)N3CCc4cc(OCCN5CCCCC5)ccc4C3C(=O)O)cc2)cc1 (stereo not shown) [Exemplary compound 14, 2-[4-(4-Methoxyphenoxy)benzenesulfonyl]-6-(2-piperidin-1-ylethoxy)-1,2,3,4-tetrahydroisoquinoline-1-carboxylic acid]
- pIC50 [3, 5]: 5.12

Compound: CCN(CC)CCOc1ccc2c(c1)CCN(S(=O)(=O)c1ccc(Oc3ccc(OC)cc3)cc1)C2C(=O)NO (stereo not shown) [Exemplary compound 15, 6-(2-Diethylaminoethoxy)-2-[4-(4-methoxyphenoxy)benzenesulfonyl]-1,2,3,4-tetrahydroisoquinoline-1-carboxylic acid hydroxyamide]
- solubility at 16 h [1]: 107 µM (≈ 61 µg/mL)
- fraction unbound [2]: 0.012
- pIC50 [3, 4]: 6.70

Compound: CCN(CC)CCOc1ccc2c(c1)CCN(S(=O)(=O)c1ccc(Oc3ccc(OC)cc3)cc1)C2C(=O)O (stereo not shown) [Exemplary compound 16, 6-(2-Diethylaminoethoxy)-2-[4-(4-methoxyphenoxy)benzenesulfonyl]-1,2,3,4-tetrahydroisoquinoline-1-carboxylic acid]
- pIC50 [3, 5]: 5.18
